Each structure is given as a SMILES string.

The first experiment has as its system neutrophils. As to the kind of experiment: Measurement of neutrophil apoptosis (Annexin V FITC / propidium iodide, flow cytometry). The format is cell-based. To be noted: 10 nM, 8 h, isolated human neutrophils, Annexin V positive / PI negative cells taken as apoptotic. From the text:
The neutrophils were isolated from the peripheral blood of healthy human donors as described previously (Afford et al 1992). Briefly, blood was collected into tubes containing EDTA followed by usage of 2% dextran solution for sedimentation of erythrocytes. The neutrophils were then isolated from leukocyte layer using a discontinuous Percoll density gradient centrifugation (Sigma- Aldrich, Poole, UK) and resuspended in RPMI 1640 medium (Sigma- Aldrich) supplemented with 10% heat-inactivated fetal bovine serum (Sera Laboratories International, Bolney, UK), 2 mM glutamine, 100 U/ml penicillin and 100 µg/ml streptomycin (Sigma-Aldrich). The purity of isolated neutrophils was assessed by Giemsa staining (Diff-Quick, Baxter Healthcare, UK) and light microscopy and was routinely greater than 97%. The neutrophils were then cultured in the presence of novel compounds (single concentration of 10 nM, or several increasing concentrations ranging from 10 nM to 1 µM) and other stimulating factors for 8 h.
For evaluation of early apoptosis, neutrophils were double stained with anti-Annexin V FITC-conjugated antibody (BD Pharmingen) binding extracellular phosphatidylserine and propidium iodide detecting late apoptotic and necrotic cells. After appropriate treatment, cells were washed with PBS and then resuspended in 100 µl of Annexin V buffer (10 mM HEPES, pH 7.4; 140 mM NaCl; 2.5 mM CaCl2). 1 µl of anti-Annexin V FITC-conjugated antibody was added and cells were then incubated at room temperature for 10 minutes followed by addition of propidium iodide at final concentration of 5 µg/ml. Fluorescence was analyzed by flow cytometry (BD Accuri C6 Flow Cytometer, Accuri Cytometers Inc.) with Annexin V positive / PI negative cells taken as apoptotic.
(In flow cytometry, cells or beads pass a laser one at a time.)
`CC(CCO)Nc1nc(NCc2ccc(-c3cccs3)cc2)c2[nH]nc(C(C)C)c2n1` (racemic) [compound 44]: the “% of apoptotic cells” value is 38%.
Turning to `CC(C)c1n[nH]c2c(Cl)nc(S(C)(=O)=O)nc12` [compound 1, 7-Chloro-3-isopropyl-5-methylsulfonyl-1H-pyrazolo[4,3-d]pyrimidine], the “% of apoptotic cells” value is recorded as 32%.
Still for that read-out and setting: the same measure for `CC(C)c1n[nH]c2c(NCc3ccc(-c4ccco4)cc3)nc(S(C)(=O)=O)nc12` [compound 2, 3-Isopropyl-5-methylsulfonyl-7-[4-(furan-2-yl)benzyl]amino-1H-pyrazolo[4,3-d]pyrimidine]: 41%.
Regarding `CC(C)c1n[nH]c2c(NCc3ccc(-c4cccs4)cc3)nc(S(C)(=O)=O)nc12` [compound 3, 3-Isopropyl-5-methylsulfonyl-7-[4-(thiophen-2-yl)benzyl]amino-1H-pyrazolo[4,3-d]pyrimidine], the “% of apoptotic cells” value stood at 58%.
`CC(C)c1n[nH]c2c(NCc3ccc(-n4cccn4)cc3)nc(S(C)(=O)=O)nc12` [compound 6, 3-Isopropyl-5-methylsulfonyl-7-[4-(1H-pyrazol-1-yl)benzyl]amino-1H-pyrazolo[4,3-d]pyrimidine]: the “% of apoptotic cells” value turned out to be 36%.
Same read-out and setting: the same measure for `CC(C)c1n[nH]c2c(NCc3ccc(-c4ccco4)cc3)nc(NCCO)nc12` [compound 7]: 47%; for `CC(C)c1n[nH]c2c(NCc3ccc(-c4ccco4)cc3)nc(NCC(O)CN)nc12` (stereo not shown) [compound 15, 3-Isopropyl-5-(3-amino-2-hydroxypropyl)amino-7-[4-(furan-2-yl)benzyl]amino-1H-pyrazolo[4,3-d]pyrimidine]: 52%; for `CC(C)c1n[nH]c2c(NCc3ccc(-c4ccco4)cc3)nc(NCCCCCCN)nc12` [compound 30]: 39%.
`CC(C)c1n[nH]c2c(NCc3ccc(-c4ccco4)cc3)nc(NCC(C)(C)O)nc12` [compound 31, 3-Isopropyl-5-(2-hydroxy-2-methylpropyl)amino-7-[4-(furan-2-yl)benzyl]amino-1H-pyrazolo[4,3-d]pyrimidine]: the “% of apoptotic cells” value is given as 50%.
Regarding `CC(C)c1n[nH]c2c(NCc3ccc(-c4cccs4)cc3)nc(NCC(C)(C)O)nc12` [compound 32, 3-Isopropyl-5-(2-hydroxy-2-methylpropyl)amino-7-[4-(thiophen-2-yl)benzyl]amino-1H-pyrazolo[4,3-d]pyrimidine], the “% of apoptotic cells” value is reported as 48%.
Consider `CC(C)c1n[nH]c2c(NCc3ccc(-c4cccs4)cc3)nc(NCCC(C)(C)O)nc12` [compound 33], for which the “% of apoptotic cells” value was determined as 36%.
Regarding `CC(C)c1n[nH]c2c(NCc3ccc(-c4cccs4)cc3)nc(NCC(O)CO)nc12` (stereo not shown) [compound 34], the “% of apoptotic cells” value stood at 52%.
Same read-out and setting: the same measure for `CC(C)c1n[nH]c2c(NCc3ccc(-c4cccs4)cc3)nc(NC[C@H](C)O)nc12` [compound 42]: 57%; for `CC(C)c1n[nH]c2c(NCc3ccc(-c4cccs4)cc3)nc(N[C@H](C)CCO)nc12` [compound 45]: 33%.
Same read-out and setting: for `CC(C)c1n[nH]c2c(NCc3ccc(-n4cccn4)cc3)nc(NCCCCN)nc12` [compound 58] the value was 44%; for `CC(C)c1n[nH]c2c(NCc3ccc(-n4cccn4)cc3)nc(NCCCCCN)nc12` [compound 59], 49%.
The same measure, in the same setting: for `CC(C)c1n[nH]c2c(NCc3ccc(-n4cccn4)cc3)nc(NCCCCCCN)nc12` [compound 60] the value was 60%; for `CC(C)c1n[nH]c2c(NCc3ccc(-n4cccn4)cc3)nc(NCC(O)CN)nc12` (stereo not shown) [compound 61, 3-Isopropyl-5-(3-amino-2-hydroxypropyl)amino-7-[4-(1H-pyrazol-1-yl)benzyl]amino-1H-pyrazolo[4,3-d]pyrimidine], 40%.
For `CCN(CC)CCNc1nc(NCc2ccc(N3CCCC3)cc2)c2[nH]nc(C(C)C)c2n1` [compound 63], the “% of apoptotic cells” value was 39%.
The same measure, in the same setting: the same measure for `CCN(CC)C(C)CCNc1nc(NCc2ccc(N3CCCC3)cc2)c2[nH]nc(C(C)C)c2n1` (stereo not shown) [compound 65]: 56%.
In the case of `CC(C)c1n[nH]c2c(NCc3ccc(N4CCCC4)cc3)nc(NCC(C)(C)O)nc12` [compound 66], the “% of apoptotic cells” value was found to be 34%.

Another experiment has as its system neutrophils. As to the kind of experiment: Superoxide generation assay (luminol-based chemiluminescent assay, fMLP stimulus). The following applies: isolated human neutrophils, GM-CSF present, compound 1 h, fMLP 2.5 µM, luminol 100 µM (Figure 2). Type of experiment: cell-based. The method, then: Isolated human neutrophils were incubated in the presence of prosurvival factor GM-CSF with or without the compound at indicated concentrations for 1 h.
Levels of reactive oxygen species (ROS) generated by neutrophils were measured using a luminol-based chemiluminescent assay (Gyllenhammar 1987). After treatment, neutrophils were resuspended in Hank's Balanced Salt Solution (HBSS) containing calcium and magnesium (Gibco) and transferred to opaque 96 well plates (Greiner Bio-One GmbH). Luminol was then added to each well at final concentration of 100 µM followed by a measuring of chemiluminescence in response to the stimulus fMLP (2.5 µM) at 1 min intervals for 30 min by means of a luminometer (Centro LB 960, Berthold Technologies, Bad Wildbad, Germany).
As to `CC(C)c1n[nH]c2c(NCc3ccc(-c4ccco4)cc3)nc(NCC(O)CN)nc12` (stereo not shown) [compound 15, 3-Isopropyl-5-(3-amino-2-hydroxypropyl)amino-7-[4-(furan-2-yl)benzyl]amino-1H-pyrazolo[4,3-d]pyrimidine], the “neutrophil oxygen radical production induced by fMLP” value is “inhibits”.

These data come from EP3325480B1, “5-SUBSTITUTED-7-[4-(SUBSTITUTED) BENZYL]AMINO-3-ISOPROPYLPYRAZOLO (4,3-D) PYRIMIDINES AS MEDICAMENTS” (Ustav experimentalni botaniky AV CR, v.v.i., priority 2015, dated 2017).
